# Test results taken from patent US12357636B2 (Urovant Sciences GmbH, priority 2018, dated 2025).
# Like-named read-outs stand apart in the source and are kept apart here.
# Tests used:
# [1] = mass balance study with [14C]vibegron; conditions: 2 and 4 hr
# [2] = drug interaction of vibegron and metoprolol succinate (CYP2D6 substrate); type: in vivo, human
# [3] = tested on: men and women with OAB; assay: Phase 2b study in OAB: efficacy (voiding diary); type: in vivo, human; conditions: tolterodine ER 4 mg QD
# Text: Part 2 was designed to continue to assess the safety and efficacy of concomitant dosing. […] Subjects in both Part 1 and Part 2 had the option of enrolling in a 1-year extension. Participants were required to keep a voiding diary, recording the occurrence of each strong urge, total incontinence, and urge incontinence episode. Efficacy data for Part 1 and Part 2 are summarized herein.
# The total number of urgency incontinence episodes must have exceeded the total number of stress incontinence episodes for all subjects.
# Conversely, a dose dependent effect on urge incontinence or total incontinence was not observed.
# [4] = tested on: patients with overactive bladder
# Text: A placebo group was included in the main study, and a group that received tolterodine monotherapy was included in the main study and in the extension.
# [5] = tested on: patients with OAB; assay: Phase 2b study: cardiovascular safety, orthostatic AEs, blood pressure and heart rate changes (Table 17); type: in vivo, human; conditions: tolterodine 4 mg
# Text: None led to discontinuation. The overall incidence of orthostatic symptoms was low.
# Small differences in the percent of subjects exceeding categorical heart rate and blood pressure thresholds for vibegron were similar to those in the tolterodine arm.
# [6] = tested on: men and women with overactive bladder; assay: Phase 3 study vibegron 75 mg vs placebo and tolterodine, 12 weeks, OAB: efficacy (Tables 21-25); type: in vivo, human; conditions: for Micturitions: Week 12 CFB Mean / Urgency Episodes: Week 12 CFB Mean / UUI: Week 12 CFB Mean: descriptive statistics; for UUI: Week 12 CFB Mean: daily UUI episodes
# Description: Enrollment of patients included individuals with OAB Wet (those with UUI, the involuntary loss of urine accompanied by urgency) and OAB Dry (those without UUI). A total of 1,518 patients were randomized across 215 study sites into one of three groups for a 12-week treatment period.
# The study consisted of a Screening Period (1 to 5 weeks), a single-blind Run-in Period (2 weeks), a randomized double-blind Treatment Period (12 weeks), and a Follow-up Period (4 weeks).
# Tolterodine ER 4 mg was the active control. […] Between the Baseline and Week 12 Visits, patients had study assessments at Week 4 and Week 8.
# For the analysis of the co-primary endpoints (change from baseline in average number of daily micturitions at Week 12 and change from baseline in average number of daily urge urinary incontinence episodes at Week 12, and placebo adjustment of each), a mixed model for repeated measure (MMRM) with restricted maximum likelihood estimation was used. This model corrects for dropout and accounts for the fact that measurements taken on the same patient over time tend to be correlated by using all available information on patients within the same covariate set to derive an estimate of the treatment effect for a dropout-free population. The analysis model for each efficacy endpoint includes terms for treatment, visit, OAB Type (Wet vs Dry), Sex (Female vs Male), Region (US vs Rest of World), baseline score, and interaction of visit by treatment.
# Primary inferences were drawn from treatment differences for the changes from baseline derived from the MMRM models at Week 12. As part of secondary objectives, the treatment differences for each post baseline visit were also derived using the same MMRM model.
# An unstructured covariance matrix was used to model the correlation among repeated measurements. The Kenward-Roger adjustment was used with restricted (or residual) maximum likelihood (REML) to make statistical inference. If the unstructured covariance model fails to converge with the default Newton-Raphson algorithm, the Fisher scoring algorithm or other appropriate methods can be used to provide initial values of the covariance parameters. In the rare event that none of the above methods yield convergence, a structured covariance would be used to model the correlation among repeated measurements.
# The change from baseline efficacy endpoints was analyzed using the same MMRM model described for co-primary endpoints.
# Analysis of the efficacy endpoints of proportion of patients with at least 75% reduction in the average number of daily UUI episodes at Week 12 and proportion of patients with 50% reduction in the average number of daily urgency episodes at Week 12 was analyzed using the Cochran-Mantel-Haenszel risk difference estimate. Missing Week 12 data was analyzed using multiple imputation. The estimated difference in the proportion of responders and 95% confidence interval for the difference was calculated using the Cochran-Mantel-Haenszel risk difference estimate stratified by OAB Type (Wet vs Dry) and Sex (Female vs Male), with weights proposed by Greenland and Robins.
# The same statistical methods that were used to analyze the co-primary and secondary efficacy endpoints were used for the exploratory analyses. Exploratory responder analyses were analyzed using the same Cochran-Mantel-Haenszel model as described above for secondary endpoints.
# [7] = tested on: men and women with overactive bladder; assay: Phase 3 study vibegron 75 mg: post-void residual urine volume (Tables 26-28); type: in vivo, human
# Text: The risk of acute urinary retention or morbidities related to an increase in Post-Void Residual (PVR) is a concern with antimuscarinic therapy that promotes smooth muscle relaxation by inhibiting acetylcholine-induced smooth muscle contraction. If, during contraction, the bladder cannot generate enough pressure to overcome the outlet resistance in the urethra, either because of poor detrusor contractility or profound obstruction (most commonly from BPH), acute urinary retention or incomplete emptying of the bladder may result.
# The volume of urine that remains in the bladder after voiding (PVR) is an objective measurement that may serve as a proxy for impaired ability to void.
# PVR were performed via ultrasound at the visits indicated in the Schedule of Activities.
# In addition, the data on the Post Void Residual Urine Volume (PVR) in all males and males with a medical history of BPH is shown in Tables 26 and 27, respectively.
# [8] = metoprolol 100 mg, vibegron 75 mg
# [9] = counts based on 3 consecutive post-baseline visits
# [10] = Week 12, co-primary endpoint, once-daily vibegron 75 mg or tolterodine
# [11] = Week 12, key secondary endpoint, once-daily vibegron 75 mg or tolterodine
# [12] = Males with medical history of BPH
# [13] = all males, vibegron 75 mg or tolterodine ER 4 mg QD
smiles,measurement,setting,value
O=C(O)C1OC(OC(c2ccccc2)C2CCC(Cc3ccc(NC(=O)C4CCc5nccc(=O)n54)cc3)N2)C(O)C(O)C1O (stereo not shown) [M7],share of total circulating drug-related material in human plasma,[1],12-14%
"COCCc1ccc(OCC(O)CNC(C)C)cc1 (stereo not shown) [Metoprolol, metoprolol succinate]","AUC0-∞ ratio of GLS mean, metoprolol + vibegron/metoprolol alone",[2]; [8],1.40
same,"Cmax ratio of GLS mean, metoprolol + vibegron/metoprolol alone",[2]; [8],1.49
same,geometric mean Cmax and AUC in the presence of vibegron,"[2]; metoprolol succinate 100 mg, vibegron 75 mg QD",increased slightly
"Cc1ccc(O)c([C@H](CCN(C(C)C)C(C)C)c2ccccc2)c1 [Tolterodine ER, tolterodine]","Micturitions difference from placebo in LS means, Week 8",[3],−0.54
same,"Urgency Episodes difference from placebo in LS means, Week 8",[3],−0.94
same,"Total Incontinence Episodes difference from placebo in LS means, Week 8",[3]; OAB Wet,−0.34
same,"Urgency Incontinence Episodes difference from placebo in LS means, Week 8",[3]; OAB Wet,−0.46
same,Accidental overdose,[4]; ER 4 mg QD,6 (2.3) n (%)
same,Alanine aminotransferase increased,[4]; ER 4 mg QD,1 (0.4) n (%)
same,Arthralgia,[4]; ER 4 mg QD,3 (1.2) n (%)
same,Aspartate aminotransferase increased,[4]; ER 4 mg QD,0 (0.0) n (%)
same,Constipation,[4]; ER 4 mg QD,5 (1.9) n (%)
same,Diarrhea,[4]; ER 4 mg QD,9 (3.5) n (%)
same,Discontinuation due to AE,[4]; ER 4 mg QD,4 (1.6) n (%)
same,Discontinuation due to drug-related AE,[4]; ER 4 mg QD,0 n (%)
same,Dizziness,[4]; ER 4 mg QD,5 (1.9) n (%)
same,Drug-related AE,[4]; ER 4 mg QD,42 (16.3) n (%)
same,Dry eye,[4]; ER 4 mg QD,10 (3.9) n (%)
same,Dry mouth,[4]; ER 4 mg QD,22 (8.6) n (%)
same,Dysuria,[4]; ER 4 mg QD,3 (1.2) n (%)
same,Fatigue,[4]; ER 4 mg QD,6 (2.3) n (%)
same,Headache,[4]; ER 4 mg QD,9 (3.5) n (%)
same,Nasopharyngitis,[4]; ER 4 mg QD,4 (1.6) n (%)
same,Nausea,[4]; ER 4 mg QD,6 (2.3) n (%)
same,Osteoarthritis,[4]; ER 4 mg QD,0 (0.0) n (%)
same,Pain in extremity,[4]; ER 4 mg QD,1 (0.4) n (%)
same,Serious AE,[4]; ER 4 mg QD,3 (1.2) n (%)
same,Sinusitis,[4]; ER 4 mg QD,1 (0.4) n (%)
same,Urinary tract infection,[4]; ER 4 mg QD,12 (4.7) n (%)
same,≥1 AE,[4]; ER 4 mg QD,116 (45.1) n (%)
same,Serious AE,"[4]; ER 4 mg QD, listed as tolterodine",3 n (%)
same,frequency of injuries,"[4]; Phase 2, tolterodine arm vs vibegron",2.1%
same,"DBP Change from Baseline [≥] 5 mm Hg, n/N (%)",[5]; [9],30/242 (12.4) %
same,"DBP Change from Baseline [≥] 10 mm Hg, n/N (%)",[5]; [9],13/242 (5.4) %
same,"DBP Change from Baseline ≥15 mm Hg, n/N (%)",[5]; [9],3/242 (1.2) %
same,"HR Change from Baseline [≥] 5 mm Hg, n/N (%)",[5]; [9],29/242 (12.0) %
same,"HR Change from Baseline [≥] 10 bpm, n/N (%)",[5]; [9],11/242 (4.5) %
same,"HR Change from Baseline ≥15 bpm, n/N (%)",[5]; [9],4/242 (1.7) %
same,"SBP Change from Baseline [≥] 5 mm Hg, n/N (%)",[5]; [9],41/242 (16.9) %
same,"SBP Change from Baseline [≥] 10 mm Hg, n/N (%)",[5]; [9],19/242 (7.9) %
same,"SBP Change from Baseline ≥15 mm Hg, n/N (%)",[5]; [9],7/242 (2.9) %
same,"DBP Change from Baseline, Mean (95% CI) Max",[5]; mean maximum from week 1 to 8,"5.19 (4.26, 6.13) mm Hg"
same,"HR Change from Baseline, Mean (95% CI) Maximum",[5]; mean maximum from week 1 to 8,"5.66 (4.69, 6.63) bpm"
same,"SBP Change from Baseline, Mean (95% CI) Maximum",[5]; mean maximum from week 1 to 8,"7.29 (6.01, 8.57) mm Hg"
same,"DBP Change from Baseline, Mean (95% CI) (week 1)",[5]; week 1,"−0.12 (−1.10, 0.86) mm Hg"
same,"HR Change from Baseline, Mean (95% CI) (week 1)",[5]; week 1,"0.68 (−0.31, 1.67) bpm"
same,"SBP Change from Baseline, Mean (95% CI) (week 1)",[5]; week 1,"0.04 (−1.36, 1.43) mm Hg"
same,Micturitions: Week 12 CFB Mean,[6]; Males with BPH,−1.25
same,Urgency Episodes: Week 12 CFB Mean,[6]; Males with BPH,−3.29
same,UUI: Week 12 CFB Mean,[6]; Males with BPH,−2.15
same,Micturitions: Week 12 CFB Mean,[6]; Males without BPH,−1.29
same,Urgency Episodes: Week 12 CFB Mean,[6]; Males without BPH,−2.32
same,UUI: Week 12 CFB Mean,[6]; Males without BPH,−2.05
same,Micturitions: Week 12 CFB Mean,[6]; Overall for Males,−1.28
same,Micturitions: Week 12 CFB Mean,[6]; Overall,−1.78
same,Urgency Episodes: Week 12 CFB Mean,[6]; Overall,−2.57
same,UUI: Week 12 CFB Mean,[6]; Overall,−1.75
same,"Micturitions, Week 12 LS Mean Change from Baseline (Placebo-Adjusted)",[6]; [10],−0.3
same,"UUI Episodes, Week 12 LS Mean Change from Baseline (Placebo-Adjusted)",[6]; [10],−0.4
same,"OAB-q Coping Score, Week 12 LS Mean Change from Baseline (Placebo-Adjusted)",[6]; [11],3.1
same,"Total Incontinence Episodes, Week 12 LS Mean Change from Baseline (Placebo-Adjusted)",[6]; [11],−0.5
same,"Urgency Episodes, Week 12 LS Mean Change from Baseline (Placebo-Adjusted)",[6]; [11],−0.4
same,"Volume Voided, Week 12 LS Mean Change from Baseline (Placebo-Adjusted)",[6]; [11],13.3 mL
same,PVR Categories at Week 12: <100 mL,[7]; [12],71.4%
same,PVR Categories at Week 12: ≥100 mL to <200 mL,[7]; [12],28.6%
same,PVR Categories at Week 12: ≥200 mL to <350 mL,[7]; [12],0%
same,PVR Categories at Week 12: ≥350 mL,[7]; [12],0%
same,PVR Mean Change from Baseline at Week 12 (SD),[7]; [12],3.7 (50.64) mL
same,PVR Mean Change from Baseline at Week 12 (SD),[7]; [13],10.2 (44.24) mL
same,PVR category <100 mL at Week 12,[7]; [13],85.2%
same,PVR category ≥100 mL to <200 mL at Week 12,[7]; [13],11.5%
same,PVR category ≥200 mL to <350 mL at Week 12,[7]; [13],3.3%
same,PVR category ≥350 mL at Week 12,[7]; [13],0
same,PVR Categories at Week 12: <100 mL,[7]; study population as a whole,86.5%
same,PVR Categories at Week 12: ≥100 mL to <200 mL,[7]; study population as a whole,5.8%
same,PVR Categories at Week 12: ≥200 mL to <350 mL,[7]; study population as a whole,0.7%
same,PVR Categories at Week 12: ≥350 mL,[7]; study population as a whole,0%
same,PVR Mean Change from Baseline at Week 12 (SD),[7]; study population as a whole,3.1 (40.93) mL
